Results as given in US8198285B2, “Pyrazine derivatives” (Astrazeneca AB, priority 2010, dated 2012).
Where a name gives a salt, the structure may show the parent alone.

Key:
[1] = target: DYRK1a (Dual Specificity Tyrosine Phosphorylated and Regulated Kinase 1a) (Homo sapiens, UniProt Q13627); assay: Inhibitory activity against DYRK1a; format: biochemical
[2] = system: β-catenin accumulation in the nucleus of murine C3H/10T1/2 cells; assay: Cellular beta-catenin stabilisation assay, Test (b); format: cell-based; settings: Mus musculus, 24 hours, read-out: EC50 versus cellular β-catenin accumulation in the nucleus of murine C3H/10T1/2 cells
Description: This assay uses an imaging based approach to measure the ability of test compounds to promote Beta-catenin stabilisation in the nucleus of C3H10T1/2 cells. Beta-catenin stabilisation is an indicator of GSK3β inhibition.
A C3H10T1/2 mouse clone 8 fibroblast cell line (American Type Culture Collection (ATCC, USA; catalogue number CRL 226) was routinely maintained at 37° C. with 5% CO2 in Basal Medium Eagle (BME, Invitrogen; Paisley, UK; catalogue number 41010) containing 10% (v/v) foetal bovine serum (FBS, Invitrogen, Paisley; UK; catalogue number 10270) and 2 mM L-glutamine (Invitrogen, Paisley, UK; catalogue number 25030024). For the assay, the cells were detached from the culture flask with ‘Accutase’ (Innovative Cell Technologies Inc., San Diego, USA; catalogue number AT104) using standard tissue culture methods and re-suspended in assay media comprising of BME containing 5% (v/v) FBS and 2 mM L-glutamine to give 55,555 cells per ml. Then, 90 μl of this solution was seeded into each well of a clear-bottom 96 well tissue culture plate (Perkin Elmer Viewplate; catalogue number 6005182) using a Multidrop Combi Dispenser (Thermo Fisher Scientific, Loughborough, UK) to give 5,000 cells per well. Plates were incubated overnight at 37° C. with 5% CO2 to allow the cells to adhere to the wells. Test compounds were prepared as 10 mM stock solutions in dimethylsulphoxide (DMSO) (Sigma-Aldrich; Poole, UK, catalogue number 49442-9) and serially diluted in DMSO. A Multidrop Combi was used to dispense 245 μl of pre-warmed assay media into a 96 well plate (Thermo Fisher Scientific, Loughborough, UK; catalogue number 50823925) before 5 μl of serially diluted compound was added to this intermediate plate. After mixing, 10 μl of each compound concentration was added to the cell plates. The total dilution factor from DMSO stock was 500 times. Control cells received either DMSO (0.2% v/v final concentration) or 10 μM positive control compound. The cells were incubated for 24 hours at 37° C. with 5% CO2.
After compound treatment the cells were fixed by the addition of 100 μl of 8% w/v paraformaldehyde (Sigma-Aldrich, Poole, UK; catalogue number P6148), directly into the assay plate wells. The cells were incubated at ambient temperature with fixative for 30 minutes before washing 3 times with 100 μl phosphate-buffered saline (PBS, Sigma-Aldrich; catalogue number D8537). […] The cells were then washed 3 times in 100 μl of PBS before the plates were sealed ready for image capture. Fluorescent images were captured and quantified using the Incell Analyser 3000 (GE Healthcare, USA). […]

## COCCCNCCCc1ccc(-c2cnc(N)c(C(=O)Nc3cccnc3)n2)cc1 [Example 1, 3-Amino-6-(4-{3-[(3-methoxypropyl)amino]propyl}phenyl)-N-pyridin-3-ylpyrazine-2-carboxamide tri-hydrochloride]
[1]
  Inhibitory activity against DYRK1a: inhibitory activity
[2]
  EC50: ~0.242 µM
